In patent publication US20060069049A1, “Methods and reagents related to foxo” (President and Fellows of Harvard College, priority 2003, published 2006):

What was measured:
AKT = experiment: Immunoblot of phospho-AKT to total AKT in C2C12 myotubes; format: cell-based, mouse; conditions: dexamethasone treatment for 24 hrs, densitometric analysis
Method: Myotube protein was also extracted with TRizo1 reagent according to the manufacturer's instructions. Protein concentration was determined by BCA assay (Pierce). SDS-PAGE was performed on 4-12% gradient gels (Novex, Invitrogen) loading 20 μg protein/lane. Westerns were performed as previously (Gomes et al., 2001) and were visualized with ECL detection reagents (Amersham). […] The relative amounts of the bands were quantified by densitometry using ImageJ software.

Foxo1, 3 and Foxo4 = experiment: Immunoblot of phosphorylated Foxo factors in C2C12 myotubes; format: cell-based, mouse
Method: (§1) Anti-phospho-AKT (Ser473), anti-phospho-mTOR (Ser2448), anti-phospho-p70S6K (Thr389), anti-phospho-Foxo1 (Ser 256), anti-phospho-Foxo4 (Ser 193), anti-AKT, anti-p70S6K and anti-Foxo1 were purchased from Cell Signaling. Anti-phospho-Foxo3 (Thr32) and the FKHR (Foxo1)-GST fusion protein were from Upstate. All primary antibodies were rabbit potyclonal antibodies. HRP-conjugated goat anti-rabbit antibody was from Promega.
C2C12 mouse myoblasts (ATCC) were cultured in DMEM 10% FCS (ATCC) until the cells reached confluence. At that time, the medium was replaced with DMEM 2% horse serum (HS) (ATCC) (“differentiation medium”) and incubated for 4 days to induce myotube formation before proceeding with experiments. […] Myotube diameter was quantified as follows: five different fields at 100× magnification were chosen randomly and myotubes were measured using IMAGE software (Scion, Frederick, Md.) as previously performed (Rommel et al., 2001). All data are expressed as the mean of five measurements taken along the length of the myotube±SEM. […]
Myotube protein was also extracted with TRizo1 reagent according to the manufacturer's instructions. Protein concentration was determined by BCA assay (Pierce). […] The relative amounts of the bands were quantified by densitometry using ImageJ software.

atrogin-1 [1] = experiment: Northern blot of atrogin-1 mRNA in C2C12 myotubes; format: cell-based, mouse
Method: (§2) C2C12 mouse myoblasts (ATCC) were cultured in DMEM 10% FCS (ATCC) until the cells reached confluence. At that time, the medium was replaced with DMEM 2% horse serum (HS) (ATCC) (“differentiation medium”) and incubated for 4 days to induce myotube formation before proceeding with experiments. Pharmacological agents were variously used at the following final concentrations: dexamethasone (1 μM; Sigma), IGF-1 (10 ng/ml; Sigma), LiCl (10 mM; Sigma), LY294002 (10 μM, from 10 mM stock in DMSO, Calbiochem). For infection, myotubes were incubated with adenovirus at a multiplicity of infection (MOI) of 250 in differentiation medium for 18 h, and then medium was replaced. Under these conditions, infection efficiency was greater than 90%. Typical experiments for RNA and protein analysis were performed in 6-well plates. Myotube diameter was quantified as follows: five different fields at 100× magnification were chosen randomly and myotubes were measured using IMAGE software (Scion, Frederick, Md.) as previously performed (Rommel et al., 2001). All data are expressed as the mean of five measurements taken along the length of the myotube±SEM. Comparisons were made using the student's t test, with p<0.05 being considered statistically significant.
After incubation, myotubes were washed in PBS and total RNA was extracted using TRizo1 reagent (Invitrogen) according to the manufacturer's specifications. Northern blotting was performed as described elsewhere (Gomes et al., 2001). Briefly, total RNA was separated on formaldehyde-agarose gels, transferred to Zeta-Probe membrane (Bio-Rad) and UV-crosslinked. Membranes were hybridized with a full length mouse atrogin-1 probe, at 65 ° C., in Church buffer (Church and Gilbert, 1984), and analyzed by using a Fuji Phosphorimager. Blots were stripped and reprobed with a mouse GADPH probe (Ambion) to ensure equal-loading and gel transfer. The relative amounts of the bands were quantified by densitometry.

C2C12 myotubes = experiment: Myotube diameter in C2C12 myotube cultures; format: cell-based, mouse; conditions: dexamethasone (1 μM) for 24 hrs
Method: as §2

S6K = experiment: Immunoblot of phosphorylated S6K in C2C12 myotubes; format: cell-based, mouse
Method: as §1, §2
Myotube protein was also extracted with TRizo1 reagent according to the manufacturer's instructions. Protein concentration was determined by BCA assay (Pierce). SDS-PAGE was performed on 4-12% gradient gels (Novex, Invitrogen) loading 20 μg protein/lane. […] The relative amounts of the bands were quantified by densitometry using ImageJ software.

FoxoGST = molecular target: T1, FoxoGST (Homo sapiens, UniProt Q12778); experiment: Electrophoretic mobility shift assay with purified FoxoGST; format: binding; conditions: for competition of FoxoGST-IGFBP1 complex formation by unlabeled oligonucleotide: 100-fold molar excess of cold competitor; for binding of FoxoGST to 32P-labeled oligonucleotide: gel shift; for competition of FoxoGST-AT Foxo 1 complex formation: increasing amounts of unlabeled oligonucleotide
T1 construct: purchased Upstate
Description: Double stranded oligonucleotides were labeled by T4 Polynucleotide kinase and […] (Promega). The following pairs of oligonucleotides were used (Forkhead sites are underlined): IGFBP1: 5′-[…]-3′ (SEQ ID NO:9) and 5′-[…] (SEQ ID NO:10); SP 1:5′-[…]-3′ (SEQ ID NO:11) and 5′[…]-3′ (SEQ ID NO:12); ATFoxo 1: 5′-GGGATAAATACT-GTGCTCGGGCAG-3′ (SEQ ID NO:13) and 5′-[…]-3′ (SEQ ID NO:14). ATFoxo 1mut: 5′-[…]-3′ (SEQ ID NO:15) and 5′ […]-3′ (SEQ ID NO:16). Reactions using the Gel Shift Assay System (Promega) contained the cold competitor (100-fold molar excess over labeled oligonucleotide) and 1 μl of purified FoxoGST (Upstate), and were incubated at room temperature for 10 min. The samples were then mixed with ^32P-labeled oligonucleotides for 20 min and loaded on Novex 6% DNA retardation gels (Invitrogen). After electrophoresis the gels were dried and analyzed using a Fuji Phosphorimager system.

atrogin-1 [2] = conditions: reported from Sacheck et al. (manuscript submitted) or Li et al. 2003a; cited from earlier work
[3] = molecular target: Constitutively active FOXO3A constitutively active (AKT phosphorylation sites, residues not stated) (Homo sapiens) (UniProt O43524); experiment: cell_activity; conditions: luciferase in adult mouse muscle
[4] = molecular target: Wild-type FOXO3A (Homo sapiens) (UniProt O43524); experiment: cell_activity; conditions: luciferase in adult mouse muscle
Sequence of Wild-type FOXO3A (Homo sapiens) (O43524 whole entry): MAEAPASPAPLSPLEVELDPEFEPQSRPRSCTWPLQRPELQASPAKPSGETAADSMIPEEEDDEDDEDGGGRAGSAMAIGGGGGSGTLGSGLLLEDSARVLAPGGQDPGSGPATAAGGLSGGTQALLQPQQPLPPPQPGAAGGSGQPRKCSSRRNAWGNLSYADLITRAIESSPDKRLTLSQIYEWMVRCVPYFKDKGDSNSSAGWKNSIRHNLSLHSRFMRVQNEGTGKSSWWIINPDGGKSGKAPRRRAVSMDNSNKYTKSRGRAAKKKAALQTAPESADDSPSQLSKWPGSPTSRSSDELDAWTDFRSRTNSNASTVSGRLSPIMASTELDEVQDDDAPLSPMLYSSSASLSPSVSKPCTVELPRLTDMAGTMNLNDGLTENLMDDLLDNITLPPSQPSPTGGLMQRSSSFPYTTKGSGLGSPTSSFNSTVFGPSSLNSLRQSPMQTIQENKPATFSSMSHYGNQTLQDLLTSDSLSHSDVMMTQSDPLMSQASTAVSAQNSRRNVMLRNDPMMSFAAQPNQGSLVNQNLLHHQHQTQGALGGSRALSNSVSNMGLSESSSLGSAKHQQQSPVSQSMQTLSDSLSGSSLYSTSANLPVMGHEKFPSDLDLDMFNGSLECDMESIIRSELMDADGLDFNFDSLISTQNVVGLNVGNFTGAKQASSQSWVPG

T1 sequence (Q12778 whole entry): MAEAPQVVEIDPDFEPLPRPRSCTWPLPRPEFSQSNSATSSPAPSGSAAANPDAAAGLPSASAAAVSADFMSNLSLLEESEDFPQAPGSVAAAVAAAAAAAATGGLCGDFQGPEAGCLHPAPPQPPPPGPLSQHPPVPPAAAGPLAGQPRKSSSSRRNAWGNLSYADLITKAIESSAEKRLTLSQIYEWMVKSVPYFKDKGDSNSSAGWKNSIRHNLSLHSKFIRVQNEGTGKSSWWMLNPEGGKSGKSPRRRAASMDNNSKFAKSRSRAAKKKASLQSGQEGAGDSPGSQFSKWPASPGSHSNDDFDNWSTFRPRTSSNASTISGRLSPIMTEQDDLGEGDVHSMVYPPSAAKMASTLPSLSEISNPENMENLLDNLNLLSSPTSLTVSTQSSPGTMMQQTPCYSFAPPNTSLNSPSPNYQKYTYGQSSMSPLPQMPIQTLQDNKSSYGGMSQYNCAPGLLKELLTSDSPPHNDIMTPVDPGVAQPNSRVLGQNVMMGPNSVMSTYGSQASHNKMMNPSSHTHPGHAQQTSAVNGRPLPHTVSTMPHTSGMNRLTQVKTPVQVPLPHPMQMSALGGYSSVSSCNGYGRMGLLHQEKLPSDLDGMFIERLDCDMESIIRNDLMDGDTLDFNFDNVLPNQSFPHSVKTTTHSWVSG
Sequence of Constitutively active FOXO3A constitutively active (AKT phosphorylation sites, residues not stated) (Homo sapiens) (O43524 whole entry): as the sequence (O43524 whole entry) above

Molecule: C[C@@H]1C[C@H]2[C@@H]3CCC4=CC(=O)C=C[C@]4(C)[C@@]3(F)[C@@H](O)C[C@]2(C)[C@@]1(O)C(=O)CO [dexamethasone, reference compound]
- fall in ratio of phospho-AKT to total AKT (AKT): 30%
- decrease in levels of phosphorylated Foxo1 and 3 (Foxo1, 3 and Foxo4; glucocorticoid treatment 24 hrs): at least 30%
- increase in atrogin-1 mRNA content (atrogin-1 [1]; cultured myotubes treated with dexamethasone (1 μM) for 24 hrs): 2-3 fold
- reduction in mean myotube diameter (C2C12 myotubes): 40%
- decrease in level of phosphorylated S6K (S6K; dexamethasone treatment 24 hrs): 10%

Molecule: IGF-1: insulin-like growth factor-1, used at 10 ng/ml (Sigma)
- effect on phosphorylated Foxo1, 3 and 4 in either model of atrophy (Foxo1, 3 and Foxo4; IGF-1 10 ng/ml, starved or dexamethasone-treated myotubes): increased the levels of phosphorylated Foxo1, 3, and 4
- effect on atrogin-1 mRNA in either model of atrophy (atrogin-1 [1]; IGF-1 10 ng/ml added to starved (6 hrs) or dexamethasone-treated (24 hrs) myotubes): suppressed atrogin-1 mRNA to the level in untreated myotubes
- effect of IGF-1 on atrogin-1 mRNA (atrogin-1 [1]; cells expressing the constitutively active Foxo3): did not reduce
- decrease in atrogin-1 mRNA content by IGF-1 (atrogin-1 [1]; cells expressing the wild type Foxo3, IGF-1 10 ng/ml): 3 fold
- S6K phosphorylation after IGF-1 addition (S6K; dexamethasone-treated cultures): restored S6K phosphorylation
- S6K phosphorylation after IGF-1 addition (S6K; starved cells): remained largely dephosphorylated

Molecule: oligonucleotide containing an SP1 binding site: unrelated oligonucleotide containing an SP1 binding site (SEQ ID NO:11/12) (chain 1 ATTCGATCGGGGCGGGGCGAG; chain 2 CTCGCCCCGCCCCGATCGTAA; listed as DNA, chemistry not fully specified) [reference compound]
- competition of FoxoGST-IGFBP1 complex formation by unlabeled oligonucleotide (FoxoGST): did not prevent complex formation

Molecule: ATFoxo 1mut: mutated version of the site, ATCACTA (SEQ ID NO:15/16) (chain 1 GGGATCACTACTGTGCTCGGGCAG; chain 2 CTGCCCGAGCACAGTAGTGATCCC; listed as DNA, chemistry not fully specified)
- competition of FoxoGST-IGFBP1 complex formation by unlabeled oligonucleotide (FoxoGST): did not prevent complex formation
- binding of FoxoGST to 32P-labeled oligonucleotide (FoxoGST): did not bind
- competition of FoxoGST-AT Foxo 1 complex formation (FoxoGST): not

Molecule: [Cl-].[Li+] [LiCl, reference compound]
- effect on atrogin-1 induction by dexamethasone (atrogin-1 [1]; myotubes, 1 μM dexamethasone 24 hrs): unable to decrease

Molecule: OO [hydrogen peroxide]
- effect on atrogin-1 expression in myotubes (atrogin-1 [2]): expression of atrogin-1 rose

Molecule: ATFoxo 1: double stranded oligonucleotide with atrogin-1 promoter forkhead site ATAAATA (SEQ ID NO:13/14) (chain 1 GGGATAAATACTGTGCTCGGGCAG; chain 2 CTGCCCGAGCACAGTATTTATCCC; listed as DNA, chemistry not fully specified)
- competition of FoxoGST-IGFBP1 complex formation by unlabeled oligonucleotide (FoxoGST): markedly reduced
- binding of FoxoGST to 32P-labeled oligonucleotide (FoxoGST): bound
- competition of FoxoGST-AT Foxo 1 complex formation (FoxoGST): able to block

Molecule: 3.5 kb atrogin-1 promoter
- activity [3]: > 20 fold
- activity [4]: 3 fold

B1: IGFBP1 oligonucleotide: control oligonucleotide containing a known forkhead site from the IGFBP1 promoter (SEQ ID NO:9/10) (nucleic acid)
chain 1: CTAGCAAGCAAAACAAACTTATTTTGAACACGGGG
chain 2: CCCCGTGTTCAAAATAAGTTTGTTTTGCTTGCTAG
modifications: listed as DNA, chemistry not fully specified
- competition of FoxoGST-IGFBP1 complex formation by unlabeled oligonucleotide (FoxoGST): prevented formation
- binding of FoxoGST to 32P-labeled oligonucleotide (FoxoGST): bound
